Laboratory results from article PMC6037002, “Drug targeting to decrease cardiotoxicity – determination of the cytotoxic effect of GnRH-based conjugates containing doxorubicin, daunorubicin and methotrexate on human cardiomyocytes and endothelial cells” (Beilstein Journal of Organic Chemistry, 2018).
Like-named read-outs stand apart in the source and are kept apart here.

Columns and labels:
[1] = test system: primary human cardiac myocytes (HCM); settings: for delta slope (DS), short-term / delta slope (DS), long-term: HCM, three parallels; for delta slope (DS), short-term: 0–2 h; for delta slope (DS), long-term: 0–72 h; for cytotoxic effect on HCM, result in words: long-term (0–72 h), 10^−8–10^−6 mol/L (free drugs 10^−12–10^−6 mol/L), impedimetry, one-way ANOVA
Description: (§1) The main objective of the study reported here was to evaluate the in vitro cardiotoxic effects (as undesired side effects) of […] GnRH-III-based conjugates containing doxorubicin, daunorubicin and methotrexate on two essential target cells of cardiovascular diseases: vascular endothelial cells and cardiomyocytes. The rate of cytotoxicity (antitumor effect) vs cardiotoxicity (toxic effects on cardiomyocytes and vascular endothelium) is an important factor for efficient drug development for targeted tumor therapy with minimized side effects. The technique used in this work – impedimetry – is a dedicated one for real-time monitoring of cells to distinguish short-term (0–2 hours) and long-term (0–72 hours) effects elicited by the drug or carrier–drug conjugates. The basic theory of impedimetry is that proliferation/viability of cells is well detectable by monitoring of the electric impedance (Z) in an AC environment, due to the electric insulator character of intact surface membranes composed of the phospholipid bilayer. […] While cell physiological responses of short-term exposures result in characteristic changes of cell morphology (e.g., spreading), long-term effects characteristically influence in particular the proliferation of cells, and therefore the cytotoxic effects. The presented dimensionless values of delta slope (DS) measure the difference between the slope of the curve corresponding to the treatment and that of the control curve in impedimetric recordings, the negative signs refer to the relative values to the identical control.
(§2) Experimental part – Cellular samples
(§3) In the present study, GnRH conjugates containing anti-tumour drugs (e.g., daunorubicin, doxorubicin) were investigated in order to evaluate whether the conjugates exert a decrease cardiotoxic effect compared to that of the free drugs. The cardiac myocytes and the vascular endothelium cells are the most frequently detected target cells of antitumor compounds and they are employed in our study. Human umbilical vein endothelial cells (HUVEC; Promocell, Biomedica, Wien, Austria) were cultured in Endothelial Cell Growth Medium with Endothelial Cell Growth Supplement Mix (Promocell, Biomedica, Wien, Austria) and 100 µg/mL penicillin/streptomycin. Primary human cardiac myocytes (HCM; Promocell, Biomedica, Wien, Austria) were cultured in Myocyte Growth Medium (Promocell, Biomedica, Wien, Austria).
(§4) Impedimetric measurements
(§5) The xCELLigence SP system was used for impedimetric measurements. The bottom of the wells of a 96-well E-plate is installed with a golden electrode array that constitutes the adhesion surface. Adhering cells – acting as insulators – change the electric impedance measured on the electrodes. The measured impedance change is in direct correlation with the number of adhering cells and the extent of adhesion. The results of impedance change are given in the form of Cell Index (CI) calculated by the xCELLigence system according to the […]
(§6) where Zt is the measured impedance in a time point, Zb is the background impedance and F is an inbuilt factor (F = 15 at 10 kHz) depending on the frequency of the alternating current. The measurements took place in an incubator holding a 37 °C temperature and 5% carbon-dioxide […]
(§7) The experiments started with a measurement of baseline impedance for 1 hour. After that, the cells (10^4 cells/well) were added to the wells and allowed to adhere to the electrodes. When the adhering cells reached a balanced state in the wells, signified by the impedance curves […]
(§8) free drugs at 10−12 – 10−6 M and the conjugates at 10−8 – 10−6 M final concentrations were […]
(§9) added to the wells. The changes in impedance were measured for at least 72 hours. For each measurement three parallels were measured.
(§10) The evaluation of responses followed the previously described strategy: acute effects of compounds were evaluated as a characteristic morphology of the curves in the 0–2 hours

[2] = test system: MCF-7 human breast adenocarcinoma cells; settings: MTT assay; cited from earlier work
Description: (§11) Table 1 Comparative study of cytotoxic effects and cardiotoxicity elicited by GnRH-based antitumor compounds (1–15) and reference substances (AN-152, Dox, Dau, Mtx). IC50 values show antitumor cytotoxic characteristics of the conjugates in human breast cancer (MCF-7), human colorectal adenocarcinoma (HT-29) and human acute monocytic leukemia (MM6) derived cell lines as representative tumor cells.

[3] = test system: human acute monocytic leukemia (MonoMac6) cells; settings: cited from earlier work
Description: as §11

[4] = test system: HT-29 human colon adenocarcinoma cells; settings: MTT assay; cited from earlier work
Description: as §11

[5] = test system: human umbilical vein endothelial cells (HUVEC); experiment: Impedimetric measurement (xCELLigence SP), delta slope, HUVEC; settings: for delta slope (DS), short-term / delta slope (DS), long-term: HUVEC, three parallels; for delta slope (DS), short-term: 0–2 h; for delta slope (DS), long-term: 0–72 h; for cytotoxic effect on HUVEC, result in words: long-term (0–72 h), 10^−8–10^−6 mol/L, impedimetry, one-way ANOVA
Description: as §1, §2, §3, §4, §5, §6, §7, §8, §9, §10

[6] = grade +++/++/+/0, key not given, summary of impedimetric cytotoxicity

## GnRH-III(Dau=Aoa-K(Dau=Aoa)) [conjugate 12]
[1]; Table S3b, 10^-6 mol/L
  delta slope (DS), short-term: -0.001
  delta slope (DS), long-term: -0.002
[1]; Table S3b, 10^-7 mol/L
  delta slope (DS), short-term: -0.001
  delta slope (DS), long-term: -0.001
[1]; Table S3b, 10^-8 mol/L
  delta slope (DS), short-term: -0.001
  delta slope (DS), long-term: -0.001
[1]; [6]
  Cardiotoxicity, HCM: 0
[1]
  cytotoxic effect on HCM, result in words: completely lost their cytotoxic effect
[2]
  IC50: 3000 ± 400 nM
[3]
  IC50: > 1000 nM
[4]
  IC50: 5600 ± 2000 nM
[5]; Table S3a, 10^-6 mol/L
  delta slope (DS), short-term: -0.003
  delta slope (DS), long-term: -0.001
[5]; Table S3a, 10^-7 mol/L
  delta slope (DS), short-term: 0.010
  delta slope (DS), long-term: -0.001
[5]; Table S3a, 10^-8 mol/L
  delta slope (DS), short-term: 0.009
  delta slope (DS), long-term: -0.001
[5]; [6]
  Cardiotoxicity, HUVEC: 0
[5]
  cytotoxic effect on HUVEC, result in words: completely lost the cytotoxic effect

## [^4Lys(Dau=Aoa)]-GnRH-III(Dau=Aoa) [conjugate 14]
[1]; Table S3b, 10^-6 mol/L
  delta slope (DS), short-term: -0.001
  delta slope (DS), long-term: -0.002
[1]; Table S3b, 10^-7 mol/L
  delta slope (DS), short-term: -0.002
  delta slope (DS), long-term: -0.001
[1]; Table S3b, 10^-8 mol/L
  delta slope (DS), short-term: 0.001
  delta slope (DS), long-term: -0.0011
[1]
  cytotoxic effect on HCM, result in words: completely lost their cytotoxic effect
[2]
  IC50: 2900 ± 900 nM
[3]
  IC50: 513 ± 40 nM
[4]
  IC50: 6800 ± 1000 nM
[5]; Table S3a, 10^-6 mol/L
  delta slope (DS), short-term: 0.006
  delta slope (DS), long-term: -0.001
[5]; Table S3a, 10^-7 mol/L
  delta slope (DS), short-term: -0.005
  delta slope (DS), long-term: -0.001
[5]; Table S3a, 10^-8 mol/L
  delta slope (DS), short-term: 0.002
  delta slope (DS), long-term: 0.001
[5]; [6]
  Cardiotoxicity, HUVEC: 0
[5]
  cytotoxic effect on HUVEC, result in words: completely lost the cytotoxic effect

## GnRH-III(Dau=Aoa-YRRL) [conjugate 8]
[1]; Table S4b, 10^-6 mol/L
  delta slope (DS), short-term: -0.002
  delta slope (DS), long-term: −0.004
[1]; Table S4b, 10^-7 mol/L
  delta slope (DS), short-term: -0.001
  delta slope (DS), long-term: -0.002
[1]; Table S4b, 10^-8 mol/L
  delta slope (DS), short-term: -0.003
  delta slope (DS), long-term: -0.001
[2]
  IC50: 1800 ± 500 nM
[3]
  IC50: > 1000 nM
[4]
  IC50: 28600 ± 5500 nM
[5]; Table S4a, 10^-6 mol/L
  delta slope (DS), short-term: 0.003
  delta slope (DS), long-term: −0.018
[5]; Table S4a, 10^-7 mol/L
  delta slope (DS), short-term: -0.004
  delta slope (DS), long-term: -0.002
[5]; Table S4a, 10^-8 mol/L
  delta slope (DS), short-term: -0.010
  delta slope (DS), long-term: -0.007

## GnRH-III(Dau=Aoa) [conjugate 4]
[1]; Table S3b, 10^-6 mol/L
  delta slope (DS), short-term: 0.001
  delta slope (DS), long-term: -0.001
[1]; Table S3b, 10^-7 mol/L
  delta slope (DS), short-term: -0.001
  delta slope (DS), long-term: -0.001
[1]; Table S3b, 10^-8 mol/L
  delta slope (DS), short-term: -0.002
  delta slope (DS), long-term: -0.001
[1]; [6]
  Cardiotoxicity, HCM: 0
[1]
  cytotoxic effect on HCM, result in words: completely lost their cytotoxic effect
[2]
  IC50: 6500 ± 1800 nM
[3]
  IC50: > 1000 nM
[4]
  IC50: 27800 ± 4200 nM
[5]; Table S3a, 10^-6 mol/L
  delta slope (DS), short-term: -0.003
  delta slope (DS), long-term: -0.001
[5]; Table S3a, 10^-7 mol/L
  delta slope (DS), short-term: -0.003
  delta slope (DS), long-term: -0.001
[5]; Table S3a, 10^-8 mol/L
  delta slope (DS), short-term: 0.001
  delta slope (DS), long-term: -0.001
[5]; [6]
  Cardiotoxicity, HUVEC: 0
[5]
  cytotoxic effect on HUVEC, result in words: completely lost the cytotoxic effect

## COc1cccc2c1C(=O)c1c(O)c3c(c(O)c1C2=O)C[C@@](O)(C(=O)CO)C[C@@H]3O[C@H]1C[C@H](N)[C@H](O)[C@H](C)O1 [doxorubicin]
[1]
  Cardiotoxicity, HCM: +++
[1]; Table S1b, 10^-6 mol/L
  delta slope (DS), short-term: 0.019
[1]; Table S1b, 10^-7 mol/L
  delta slope (DS), short-term: 0.003
[1]; Table S1b, 10^-8 mol/L
  delta slope (DS), short-term: 0.001
[1]; Table S1b, 10^-9 mol/L
  delta slope (DS), short-term: -0.001
[1]; Table S1b, 10^-10 mol/L
  delta slope (DS), short-term: 0.002
[1]; Table S1b, 10^-11 mol/L
  delta slope (DS), short-term: 0.002
[1]; Table S1b, 10^-12 mol/L
  delta slope (DS), short-term: 0.001
[1]; Table S2b, 10^-6 mol/L
  delta slope (DS), short-term: 0.057
[1]; Table S2b, 10^-7 mol/L
  delta slope (DS), short-term: -0.001
[1]; Table S2b, 10^-8 mol/L
  delta slope (DS), short-term: 0.001
[2]
  IC50: 100 nM
[3]
  IC50: 7 ± 0.1 nM
[4]
  IC50: 100 nM
[5]
  Cardiotoxicity, HUVEC: +++
[5]; Table S1a, 10^-6 mol/L
  delta slope (DS), short-term: 0.063
[5]; Table S1a, 10^-7 mol/L
  delta slope (DS), short-term: 0.037
[5]; Table S1a, 10^-8 mol/L
  delta slope (DS), short-term: -0.008
[5]; Table S1a, 10^-9 mol/L
  delta slope (DS), short-term: 0.003
[5]; Table S1a, 10^-10 mol/L
  delta slope (DS), short-term: -0.004
[5]; Table S1a, 10^-11 mol/L
  delta slope (DS), short-term: 0.021
[5]; Table S1a, 10^-12 mol/L
  delta slope (DS), short-term: 0.008
[5]; Table S2a, 10^-6 mol/L
  delta slope (DS), short-term: 0.012
[5]; Table S2a, 10^-7 mol/L
  delta slope (DS), short-term: 0.032
[5]; Table S2a, 10^-8 mol/L
  delta slope (DS), short-term: 0.002
